Earlier results on one compound are cited in patent US20220370398A1, “METHOD TO DESTABALIZE CYSTEINE EXPOSED INFECTIOUS INFORMATION VECTORS” (priority 2021, published 2022).

The conditions of data set [1]: in 40% aqueous ethanol solution.
The test system of the next data set is bacterial infection. Particulars: in vitro, as a vapor.

Consider `C=CCS[S+]([O-])CC=C` (centres unmarked) [2PSP, 2-Propene-1-sulfinothioic acid S-2-propenyl ester], for which the solubility in data set [1] is on record as about 20%. In the data set with bacterial infection, the vapor antimicrobial effect entry is “inhibits bacterial infection”.
